Source: publication PMC6254361, “The properties of Msh2–Msh6 ATP binding mutants suggest a signal amplification mechanism in DNA mismatch repair” (The Journal of Biological Chemistry, 2018)

Biological target: T1, Msh2–Msh6 (Saccharomyces cerevisiae, UniProt P25847+Q03834, P25847:K694M)
T1 sequence (P25847 1-964 K694M): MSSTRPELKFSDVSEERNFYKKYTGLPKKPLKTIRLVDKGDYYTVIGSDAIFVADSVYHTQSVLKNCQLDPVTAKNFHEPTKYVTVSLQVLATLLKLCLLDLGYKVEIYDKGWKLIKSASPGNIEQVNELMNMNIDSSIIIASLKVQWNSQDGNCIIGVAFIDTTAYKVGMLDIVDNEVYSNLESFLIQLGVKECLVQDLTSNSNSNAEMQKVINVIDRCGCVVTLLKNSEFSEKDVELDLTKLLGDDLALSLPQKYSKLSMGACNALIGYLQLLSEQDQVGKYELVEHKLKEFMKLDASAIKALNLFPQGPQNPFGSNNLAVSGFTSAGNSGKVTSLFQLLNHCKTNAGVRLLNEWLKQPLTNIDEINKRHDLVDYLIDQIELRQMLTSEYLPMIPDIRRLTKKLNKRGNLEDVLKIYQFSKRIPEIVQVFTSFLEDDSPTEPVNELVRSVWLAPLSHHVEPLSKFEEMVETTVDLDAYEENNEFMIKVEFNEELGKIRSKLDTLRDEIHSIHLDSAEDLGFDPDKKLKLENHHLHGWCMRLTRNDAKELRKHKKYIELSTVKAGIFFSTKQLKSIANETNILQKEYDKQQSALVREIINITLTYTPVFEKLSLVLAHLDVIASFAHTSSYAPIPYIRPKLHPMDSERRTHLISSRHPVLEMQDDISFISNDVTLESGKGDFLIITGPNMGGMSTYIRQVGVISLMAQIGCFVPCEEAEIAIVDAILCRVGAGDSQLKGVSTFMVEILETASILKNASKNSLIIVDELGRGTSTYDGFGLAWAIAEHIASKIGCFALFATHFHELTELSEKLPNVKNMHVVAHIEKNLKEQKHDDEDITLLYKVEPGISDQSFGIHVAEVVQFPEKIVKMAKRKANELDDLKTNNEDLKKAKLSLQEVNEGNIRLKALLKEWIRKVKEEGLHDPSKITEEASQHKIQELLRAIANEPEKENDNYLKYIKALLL
T1 sequence (Q03834 1-1242): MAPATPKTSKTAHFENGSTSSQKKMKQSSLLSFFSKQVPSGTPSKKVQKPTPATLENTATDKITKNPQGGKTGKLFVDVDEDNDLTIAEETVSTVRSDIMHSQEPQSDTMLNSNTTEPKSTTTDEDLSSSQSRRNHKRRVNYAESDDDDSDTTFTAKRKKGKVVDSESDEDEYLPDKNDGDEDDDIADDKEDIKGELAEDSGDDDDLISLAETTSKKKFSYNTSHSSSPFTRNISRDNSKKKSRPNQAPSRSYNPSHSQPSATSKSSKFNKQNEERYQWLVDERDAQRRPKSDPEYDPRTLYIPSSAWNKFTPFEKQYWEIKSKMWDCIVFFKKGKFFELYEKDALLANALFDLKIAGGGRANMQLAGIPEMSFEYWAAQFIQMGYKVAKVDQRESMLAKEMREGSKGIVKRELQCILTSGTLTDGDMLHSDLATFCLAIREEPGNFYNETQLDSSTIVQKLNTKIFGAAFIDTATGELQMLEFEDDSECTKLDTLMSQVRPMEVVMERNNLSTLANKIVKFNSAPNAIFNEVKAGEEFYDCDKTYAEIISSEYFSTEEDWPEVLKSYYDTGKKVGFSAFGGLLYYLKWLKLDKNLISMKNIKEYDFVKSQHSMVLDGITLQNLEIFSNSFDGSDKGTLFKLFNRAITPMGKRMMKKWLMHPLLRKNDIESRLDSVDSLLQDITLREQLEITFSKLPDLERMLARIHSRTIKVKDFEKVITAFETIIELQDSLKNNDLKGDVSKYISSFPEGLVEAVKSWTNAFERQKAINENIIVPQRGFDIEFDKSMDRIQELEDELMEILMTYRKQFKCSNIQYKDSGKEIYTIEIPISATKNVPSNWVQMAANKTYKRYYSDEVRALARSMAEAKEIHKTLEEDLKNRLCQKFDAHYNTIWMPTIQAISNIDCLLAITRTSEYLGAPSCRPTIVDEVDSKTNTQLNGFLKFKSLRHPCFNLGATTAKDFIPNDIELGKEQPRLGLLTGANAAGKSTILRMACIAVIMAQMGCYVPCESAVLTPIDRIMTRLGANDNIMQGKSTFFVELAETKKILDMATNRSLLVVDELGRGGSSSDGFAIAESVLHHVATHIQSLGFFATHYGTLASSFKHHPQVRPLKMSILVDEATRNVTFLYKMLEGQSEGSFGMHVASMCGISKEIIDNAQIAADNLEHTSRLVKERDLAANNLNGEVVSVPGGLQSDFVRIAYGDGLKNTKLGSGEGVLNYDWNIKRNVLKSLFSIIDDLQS
Assay: UV cross-linking of [γ-32P]ATP, SDS-PAGE, phosphorimaging
Format: binding
Details: labelled compound; no Mg2+, EDTA, pH 8, on ice; Msh2 site at 60 μM ATP, Msh6 site at 1 μM ATP

Nc1ncnc2c1ncn2[C@@H]1O[C@H](COP(=O)(O)OP(=O)(O)OP(=O)(O)O)[C@@H](O)[C@H]1O [ATP]
relative ATP binding: Msh2(K694M)–Msh6 mutant complex was only defective for binding ATP to the Msh2 subunit
